In paper PMC9782603 (Viruses, 2022):
In brackets after ≈: the same amount, converted by molar mass. Where two headings read alike, the source gives them in different places.

How the values were obtained:
[1] = Water solubility by HPLC-UV after 24 h agitation; type: physicochemical; conditions: thermodynamic from solid, deionized water, ambient temperature
[2] = alamarBlue reduction cytotoxicity assay in replicon cells; type: cell-based; conditions: human, HCV Replicon 1b cells
[3] = system: HCV GT-1b RNA (Con1 replicon); test: Viral RNA quantification by RT-qPCR in Huh5-2 replicon cells; type: cell-based; conditions: (+) strand HCV RNA by RT-qPCR, Huh5-2 cells, normalized to YWHAZ
HCV GT 1b (Con1) = test: Drug combination of 11a with daclatasvir in Huh5-2 replicon cells; type: cell-based
[4] = system: HCV GT 4a (strain ED43) replicon; test: HCV GT 4a subgenomic replicon luciferase antiviral assay in Huh7.5-4a cells; type: cell-based; conditions: Hepatitis C virus, GT4A, 72 h; Huh7.5-4a, GT 4a (ED43), F-Luc, 3 days; read-out: EC50 HCV Replicon 4a
[5] = system: HCV GT 3a (strain S52) replicon; test: HCV GT 3a subgenomic replicon luciferase antiviral assay in Huh7.5-3a cells; type: cell-based; conditions: Hepatitis C virus, GT3A, 72 h; Huh7.5-3a, GT 3a (S52), F-Luc, 3 days; read-out: EC50 HCV Replicon 3a
[6] = system: HCV GT 1b subgenomic reporter replicon (strain Con1); test: HCV GT 1b subgenomic replicon luciferase antiviral assay in Huh5-2 cells; type: cell-based; conditions: Huh5-2, GT 1b (Con1), F-Luc, 3 days, read-out: EC50 HCV Replicon 1b
HCV GT 2a = test: Activity against HCV GT 2a (data not shown); type: cell-based
NS5B = conditions: reported NS5B TP-2 inhibitors, Figure 1; cited from earlier work
[7] = system: HCV GT-1b replicon containing Huh-7 cells; parameters: method as in earlier work; conditions: cited from earlier work
[8] = Hepatitis C virus, GT1B, Huh-5-2, 72 h

Compound | solubility at 24 h [1] | CC50 at 3 days [2] | melting point | EC50 [3] | Combinatory effect with daclatasvir (HCV GT 1b (Con1); 11a in combination with DCV, Huh5-2, in words) | CDI (coefficient of drug interaction) (HCV GT 1b (Con1); 11a with daclatasvir (DCV), Huh5-2) | CDI (HCV GT 1b (Con1); DCV 30 pM + 11a 0.1 μM, Huh5-2) | CDI (HCV GT 1b (Con1); DCV 30 pM + 11a 1 μM, Huh5-2) | EC50 [4] | EC50 [5] | EC50 [6, 8] | EC50 [6] | activity against GT 2a (HCV GT 2a) | IC50 (NS5B) | EC50 [7]
Cc1ccc(OCC(=O)Nc2ccc3c(c2)c(=O)nc(C)n3-c2ccccc2)cc1 [11a, N-(2-Methyl-4-oxo-1-phenyl-1,4-dihydroquinazolin-6-yl)-2-(p-tolyloxy)acetamide] | 2.7 µg/mL (≈ 6.76 µM) | 157500 ± 30 nM | 268 °C | 1130 nM | additive effect | ≈ 1 | 0.949 | 0.995 | > 10000 nM | > 10000 nM | 984 nM | 980 ± 60 nM | – | – | –
Cc1nc(=O)c2cc(NC(=O)COc3ccc(Cl)cc3)ccc2n1-c1ccccc1 [11b, 2-(4-Chlorophenoxy)-N-(2-methyl-4-oxo-1-phenyl-1,4-dihydroquinazolin-6-yl)acetamide] | 3.5 µg/mL (≈ 8.34 µM) | 99010 ± 90 nM | 254 °C | – | – | – | – | – | > 10000 nM | 11600 ± 1260 nM | 1380 ± 40 nM | – | no activity | – | –
CC1CCC(C(=O)N(c2cc(C#CC(C)(C)C)sc2C(=O)O)C(C)C)CC1 (stereo not drawn) [II] | – | – | – | – | – | – | – | – | – | – | – | – | – | 86 nM | 26 nM
